According to ChEMBL document CHEMBL1141493, “Synthesis and structure-activity relationships of heteroaryl substituted-3,4-diamino-3-cyclobut-3-ene-1,2-dione CXCR2/CXCR1 receptor antagonists” (Bioorg Med Chem Lett, 2008):
Activity calls are given as the source filed them. The calls are words filed in the database; no cut-off is given here.

Key:
[1] = molecular target: T1, C-X-C chemokine receptor type 2 (Homo sapiens, UniProt P25025); experiment: Inhibition of CXCR2
T1 sequence (P25025 whole entry): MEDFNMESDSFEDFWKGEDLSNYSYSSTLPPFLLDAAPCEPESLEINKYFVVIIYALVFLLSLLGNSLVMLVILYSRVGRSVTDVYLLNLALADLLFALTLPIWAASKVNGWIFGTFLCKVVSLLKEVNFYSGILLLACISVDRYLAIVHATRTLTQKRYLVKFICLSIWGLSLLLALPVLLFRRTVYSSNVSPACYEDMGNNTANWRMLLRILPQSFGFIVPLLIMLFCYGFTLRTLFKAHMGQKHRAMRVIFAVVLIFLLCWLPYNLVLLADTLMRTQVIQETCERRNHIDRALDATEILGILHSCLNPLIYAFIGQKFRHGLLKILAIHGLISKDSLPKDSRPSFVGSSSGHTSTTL

[2] = molecular target: T2, C-X-C chemokine receptor type 1 (Homo sapiens, UniProt P25024); experiment: Inhibition of CXCR1
T2 sequence (P25024 whole entry): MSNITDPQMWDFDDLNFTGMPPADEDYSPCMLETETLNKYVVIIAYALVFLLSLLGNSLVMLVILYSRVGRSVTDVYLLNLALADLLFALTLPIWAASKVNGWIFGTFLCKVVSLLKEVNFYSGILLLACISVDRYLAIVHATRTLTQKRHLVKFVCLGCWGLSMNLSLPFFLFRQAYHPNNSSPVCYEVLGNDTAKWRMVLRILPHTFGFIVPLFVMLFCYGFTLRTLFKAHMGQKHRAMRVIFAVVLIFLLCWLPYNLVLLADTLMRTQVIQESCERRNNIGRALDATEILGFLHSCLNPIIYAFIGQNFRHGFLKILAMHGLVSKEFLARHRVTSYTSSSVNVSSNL

[3] = molecular target: T3, C-X-C chemokine receptor type 1 (Homo sapiens) (UniProt P25024); experiment: Inhibition of CXCR1 at >10000 nM
T3 sequence (whole entry): T2 sequence (P25024 whole entry)

[4] = AUC in rat at 10 mg/kg, po; type: ADME, organism-based; set-up: dose 10 mg/kg, route oral; conditions: plasma
[5] = molecular target: T3, C-X-C chemokine receptor type 1 (Homo sapiens); experiment: Inhibition of CXCR1-mediated chemotaxis in Ba/F3 cells expressing human CXCR1 at >10000 nM; type: cell-based; conditions: BaF3

SMILES | IC50 [1] [nM] | IC50 [2] [nM] | Activity [3] | AUC [4] [µM·h] | Activity [5]
CCC(Nc1c(Nc2cccc(C(=O)N(C)C)c2O)c(=O)c1=O)c1cc2ccccc2o1 (stereo not given) | 3.5 | 412 |  |  | 
CCC(Nc1c(Nc2cccc(C(=O)N(C)C)c2O)c(=O)c1=O)c1sccc1Cl (stereo not given) | 21 | 1370 |  |  | 
CCC(Nc1c(Nc2cccc(C(=O)N(C)C)c2O)c(=O)c1=O)c1cccs1 (stereo not given) | 6.2 | 179 |  |  | 
CCC(Nc1c(Nc2cccc(C(=O)N(C)C)c2O)c(=O)c1=O)c1cccn1C (stereo not given) | 815 |  | inactive |  | 
CCC(Nc1c(Nc2cccc(C(=O)N(C)C)c2O)c(=O)c1=O)c1nc(C)no1 (stereo not given) | 8.2 | 289 |  |  | 
CCC(Nc1c(Nc2cccc(C(=O)N(C)C)c2O)c(=O)c1=O)c1cc(-c2c(C)noc2C)co1 (stereo not given) | 7.6 | 345 |  |  | 
CC[C@@H](Nc1c(Nc2cccc(C(=O)N(C)C)c2O)c(=O)c1=O)c1ccsc1 | 3.4 | 104 |  |  | 
CCC(Nc1c(Nc2cccc(C(=O)N(C)C)c2O)c(=O)c1=O)c1ccc(-c2ccccc2Cl)o1 (stereo not given) | 49 | 4870 |  |  | 
CCC(Nc1c(Nc2cccc(C(=O)N(C)C)c2O)c(=O)c1=O)c1cc(Cl)co1 (stereo not given) | 4.5 | 100 |  |  | 
CCC(Nc1c(Nc2cccc(C(=O)N(C)C)c2O)c(=O)c1=O)c1ccc(-c2cccc(C(F)(F)F)c2)o1 (stereo not given) | 87 | 3430 |  |  | 
CCC(Nc1c(Nc2cccc(C(=O)N(C)C)c2O)c(=O)c1=O)c1ccc(-c2ccccc2C(F)(F)F)o1 (stereo not given) | 150 |  | inactive |  | 
CCC(Nc1c(Nc2cccc(C(=O)N(C)C)c2O)c(=O)c1=O)c1ccoc1 (stereo not given) | 8 | 812 |  |  | 
CCC(Nc1c(Nc2cccc(C(=O)N(C)C)c2O)c(=O)c1=O)c1ccsc1 (stereo not given) | 5.8 | 165 |  |  | 
CC[C@@H](Nc1c(Nc2cccc(C(=O)N(C)C)c2O)c(=O)c1=O)c1cc(C)on1 | 6.3 | 171 |  | 3.7 | inactive
CCC(Nc1c(Nc2cccc(C(=O)N(C)C)c2O)c(=O)c1=O)c1nccs1 (stereo not given) | 9.8 | 703 |  |  | 
CCC(Nc1c(Nc2cccc(C(=O)N(C)C)c2O)c(=O)c1=O)c1ncco1 (stereo not given) | 8.6 | 795 |  |  | 
CCC(Nc1c(Nc2cccc(C(=O)N(C)C)c2O)c(=O)c1=O)c1cc(-c2ccsc2)co1 (stereo not given) | 8.2 | 221 |  |  | 
CCC(Nc1c(Nc2cccc(C(=O)N(C)C)c2O)c(=O)c1=O)c1cc(C)on1 (stereo not given) | 7.5 | 224 |  |  | 
CCC(Nc1c(Nc2cccc(C(=O)N(C)C)c2O)c(=O)c1=O)c1cocn1 (stereo not given) | 10.9 | 805 |  |  | 
CCC(Nc1c(Nc2cccc(C(=O)N(C)C)c2O)c(=O)c1=O)c1cc(-c2ccccc2)co1 (stereo not given) | 6.1 | 150 |  |  | 
CC[C@@H](Nc1c(Nc2cccc(C(=O)N(C)C)c2O)c(=O)c1=O)c1ccccn1 | 3.3 | 148 |  |  | inactive
CCC(Nc1c(Nc2cccc(C(=O)N(C)C)c2O)c(=O)c1=O)c1ccc(-c2cccc(Cl)c2)o1 (stereo not given) | 58 | 3380 |  |  | 
CCC(Nc1c(Nc2cccc(C(=O)N(C)C)c2O)c(=O)c1=O)c1ccncc1 (stereo not given) | 50 | 2860 |  |  | 
CCC(Nc1c(Nc2cccc(C(=O)N(C)C)c2O)c(=O)c1=O)c1ccc(Cl)s1 (stereo not given) | 6.2 | 1110 |  |  | 
CCC(Nc1c(Nc2cccc(C(=O)N(C)C)c2O)c(=O)c1=O)c1cc(-c2ccncc2)co1 (stereo not given) | 9.5 | 526 |  |  | 

Other lines, results leading:

IC50 [1] [nM] | IC50 [2] [nM] | Activity [3] | AUC [4] [µM·h] | Activity [5] | SMILES
2.8 | 182 |  |  |  | CCC(Nc1c(Nc2cccc(C(=O)N(C)C)c2O)c(=O)c1=O)c1ccc(CO)o1 (stereo not given)
4.8 | 275 |  |  |  | CCC(Nc1c(Nc2cccc(C(=O)N(C)C)c2O)c(=O)c1=O)c1ccc(Cl)o1 (stereo not given)
6.8 | 568 |  |  |  | CCC(Nc1c(Nc2cccc(C(=O)N(C)C)c2O)c(=O)c1=O)c1ccc(C(F)F)o1 (stereo not given)
4.7 | 463 |  |  |  | CCC(Nc1c(Nc2cccc(C(=O)N(C)C)c2O)c(=O)c1=O)c1ccc(Br)o1 (stereo not given)
5 | 93 |  |  |  | CCC(Nc1c(Nc2cccc(C(=O)N(C)C)c2O)c(=O)c1=O)c1cc(Br)co1 (stereo not given)
5 | 67 |  |  |  | CCC(Nc1c(Nc2cccc(C(=O)N(C)C)c2O)c(=O)c1=O)c1ccco1 (stereo not given)
4.6 | 244 |  |  |  | CC[C@@H](Nc1c(Nc2cccc(C(=O)N(C)C)c2O)c(=O)c1=O)c1ccc(Cl)o1
171 |  | inactive |  |  | CCC(Nc1c(Nc2cccc(C(=O)N(C)C)c2O)c(=O)c1=O)c1ccc(C(=O)N(C)C)o1 (stereo not given)
94 |  | inactive |  |  | CCC(Nc1c(Nc2cccc(C(=O)N(C)C)c2O)c(=O)c1=O)c1ccc(CN(C)C)o1 (stereo not given)
16.5 | 1020 |  |  |  | CCC(Nc1c(Nc2cccc(C(=O)N(C)C)c2O)c(=O)c1=O)c1occc1Br (stereo not given)
4.1 | 854 |  |  |  | CCc1ccc(C(CC)Nc2c(Nc3cccc(C(=O)N(C)C)c3O)c(=O)c2=O)o1 (stereo not given)
3.5 | 55 |  | 33.4 |  | CC[C@@H](Nc1c(Nc2cccc(C(=O)N(C)C)c2O)c(=O)c1=O)c1cc(Br)co1
9.8 | 302 |  |  |  | CCC(Nc1c(Nc2cccc(C(=O)N(C)C)c2O)c(=O)c1=O)c1ccno1 (stereo not given)
17.2 | 6060 |  |  |  | CCC(Nc1c(Nc2cccc(C(=O)N(C)C)c2O)c(=O)c1=O)c1ccc(C(F)(F)F)o1 (stereo not given)
3.8 | 62 |  | 21.5 |  | CC[C@@H](Nc1c(Nc2cccc(C(=O)N(C)C)c2O)c(=O)c1=O)c1cc(Cl)co1
